Patent US5866597A, “Use of triazine compounds for the treatment of memory and learning disorders” (Glaxo Wellcome Inc., priority 1993, dated 1999)

Experiments:
[1] = test system: scopolamine-induced deficit in mice; assay: Modified light-dark box memory test in mice, scopolamine-induced deficit, drug given pre-training (Table 1); format: in vivo, Male albino CD-1 mice; conditions: for Mean latency Day 1 / Mean latency Day 2: ± SEM
Description: (§1) Male albino CD-1 mice obtained from Charles River were used. They were housed under controlled conditions (temperature 21±2 deg. C., humidity approx. 50%, 12 hour light/dark cycle, food and water ad lib) for one week before use. On the day before test, the mice were housed in groups of six in polythene boxes in the laboratory and marked for identification. Food and water were supplied ad lib. On the test day, animals were weighed and then dosed either 30 minutes before test (piracetam, ondansetron) one hour before test (compound A) or immediately after test.
All drugs were dissolved or suspended in 0.25% (w/v) aqueous celacol, and administered orally (by gavage), i.p. or s.c. The dose volume was 10 ml/kg for all routes.
(§2) The apparatus consisted of two boxes with an opening 90 mm×60 mm at floor level between them. A plastic door was used to close the opening when required. The smaller box (290 mm×120 mm×120 mm high) was made of opaque plastics, open at the top to allow illumination by normal laboratory lighting. The larger box (305 mm square×280 mm high) was enclosed apart from the single opening.
(§3) This consisted of training, with retest 24 hours later. During training, animals were placed individually in the open box facing away from the end with the opening. After a period of exploration, they usually entered the dark box and the latency to entry in seconds was noted. The door to the dark box was closed, and after 30 seconds had elapsed, the animal was removed gently and returned to the holding box. Twenty-four hours later, an identical procedure was used, except that the session ended as soon as the animal had entered the dark box. The latency was again noted. During the interval, the animals were not handled, and were disturbed as little as possible. Each animal was used once only.
(§4) Test drugs or control fluids were given before or immediately after the training session.
Group comparisons were made between latencies to enter the dark compartment on the first and second occasions. For both training and retest occasions, comparisons were made between vehicle and treatment groups. […] The difference between latencies on the two occasions is presented as % decrease on Day 2 compared with Day 1.
(§5) The mean latency to enter the dark box±standard error of the mean was calculated from a group of 12 animals. For a given treatment, figures in the columns labelled `Day 1` and `Day 2` show the mean latencies taken from the same group of animals. The difference between data obtained on the two days is illustrated by showing the % decrease, and the data compared using the Mann-Whitney U-test; NS indicates a p value>0.1.

[2] = test system: scopolamine-induced deficit in mice; assay: Modified light-dark box memory test in mice, scopolamine-induced deficit, drug given immediately post-training (Table 2); format: in vivo, Male albino CD-1 mice; conditions: for Mean latency Day 1 / Mean latency Day 2: ± SEM
Description: as §1
[…] The dose volume was 10 ml/kg for all routes.
as §2, §3, §4
Group comparisons were made between latencies to enter the dark compartment on the first and second occasions. For both training and retest occasions, comparisons were made between vehicle and treatment groups. The distribution of latencies was skewed on both learning and retest trials (data not shown), so the non-parametric Mann-Whitney U-test was used. The difference between latencies on the two occasions is presented as % decrease on Day 2 compared with Day 1.
as §5

[3] = test system: scopolamine-induced pupillary dilatation in rats; assay: Pupil diameter measurement in rats (Table 6); format: in vivo, Male Wistar rats; conditions: for Mean pupil diameter: ± SEM
Description: (§6) 15 minutes before observation. Under these conditions, which were identical to those used in the learning experiments described in Example 2, changes in salivation and pupil diameter were measured. Salivation was measured by placing a piece of folded filter paper in the rat's mouth and measuring the diameter of the blot in mm after 1 minute. Pupil diameter was measured using a magnifying glass and graticule under normal lighting conditions. For both measures, comparisons were made between control and drug-treated groups using a Student's T-test on independent samples.
(§7) Groups of 6 animals were used.

[4] = test system: scopolamine-induced dry mouth in rats; assay: Salivation measurement in rats (Table 6); format: in vivo, Male Wistar rats; conditions: for Mean salivation (blot diameter): ± SEM
Description: as §6, §7

[5] = test system: voltage-sensitive sodium channels; conditions: Lang et al 1993; Lees and Leach 1993; cited from earlier work
[6] = test system: release of excitatory amino acids, principally glutamate; conditions: at anticonvulsant brain concentrations; cited from earlier work
[7] = saline s.c. + compound A 40 mg/kg p.o., 1 h pre-training
[8] = scopolamine 1 mg/kg s.c. + compound A 10 mg/kg p.o.
[9] = scopolamine 1 mg/kg s.c. + compound A 20 mg/kg p.o.
[10] = scopolamine 1 mg/kg s.c. + compound A 40 mg/kg p.o.
[11] = saline s.c. + compound A 20 mg/kg i.v. post-training
[12] = saline s.c. + compound A 40 mg/kg p.o. post-training
[13] = scopolamine 1 mg/kg s.c. + compound A 20 mg/kg i.v. post-training
[14] = scopolamine 1 mg/kg s.c. + compound A 40 mg/kg p.o. post-training
[15] = compound A 10 mg/kg p.o. + saline s.c.
[16] = compound A 40 mg/kg p.o. + saline s.c.
[17] = compound A 40 mg/kg p.o. + scopolamine 0.1 mg/kg s.c.
[18] = compound A pretreatment, p>0.05 vs vehicle

In the case of `Nc1nnc(-c2cccc(Cl)c2Cl)c(N)n1` [Compound A, 3,5-Diamino-6-(2,3-dichlorophenyl)-1,2,4-triazine], the “Difference between days, % Decrease” value ([1]; saline s.c. + compound A 40 mg/kg p.o., 1 h pre-training, p <0.01) is reported as 45%, the “Mean latency Day 1” value [1, 7] is reported as 23.3 ± 3.4 s and the “Mean latency Day 2” value [1, 7] is reported as 12.8 ± 1.2 s. For the same compound, the “Difference between days, % Decrease” value ([1]; scopolamine 1 mg/kg s.c. + compound A 10 mg/kg p.o., p NS) was 13%, the “Mean latency Day 1” value [1, 8] was 19.6 ± 1.7 s and the “Mean latency Day 2” value [1, 8] was 17.1 ± 2.2 s. The “Difference between days, % Decrease” value ([1]; scopolamine 1 mg/kg s.c. + compound A 20 mg/kg p.o., p <0.05) was 28%, the “Mean latency Day 1” value [1, 9] was 18.6 ± 2.4 s and the “Mean latency Day 2” value [1, 9] was 13.3 ± 1.5 s. For the same compound, the “Difference between days, % Decrease” value ([1]; scopolamine 1 mg/kg s.c. + compound A 40 mg/kg p.o., p <0.001) was 56%, the “Mean latency Day 1” value [1, 10] was 22.1 ± 3.2 s and the “Mean latency Day 2” value [1, 10] was 9.7 ± 1.2 s. The “Reversal of scopolamine-induced deficit” value ([2]; compound A 20 mg/kg i.v. post-training) was “no reversal of the scopolamine-induced deficit”, the “Reversal of scopolamine-induced deficit” value ([2]; compound A 40 mg/kg p.o. post-training) was “no reversal of the scopolamine-induced deficit” and the “Difference between days, % Decrease” value ([2]; saline s.c. + compound A 20 mg/kg i.v. post-training, p (0.09)) was 26%. The “Mean latency Day 1” value [2, 11] was 19.9 ± 2.7 s, the “Mean latency Day 2” value [2, 11] was 14.8 ± 2.1 s and the “Difference between days, % Decrease” value ([2]; saline s.c. + compound A 40 mg/kg p.o. post-training, p <0.05) was 30%. The “Mean latency Day 1” value [2, 12] was 20.0 ± 2.3 s, the “Mean latency Day 2” value [2, 12] was 13.9 ± 1.5 s and the “Difference between days, % Decrease” value ([2]; scopolamine 1 mg/kg s.c. + compound A 20 mg/kg i.v. post-training, p NS) was -1%. The “Mean latency Day 1” value [2, 13] was 20.0 ± 2.3 s, the “Mean latency Day 2” value [2, 13] was 20.3 ± 2.5 s and the “Difference between days, % Decrease” value ([2]; scopolamine 1 mg/kg s.c. + compound A 40 mg/kg p.o. post-training, p NS) was -23%. For the same compound, the “Mean latency Day 1” value [2, 14] was 18.5 ± 1.8 s, the “Mean latency Day 2” value [2, 14] was 22.7 ± 2.6 s and the Mean pupil diameter [3, 15] was 7.00 ± 0.58 mm × 10. For the same compound, the Mean pupil diameter [3, 16] was 7.75 ± 0.85 mm × 10, the Mean pupil diameter [3, 17] was 23.0 ± 1.78 mm × 10 and the “Influence on scopolamine-induced change in pupil diameter” value [3, 18] was “no influence on the scopolamine-induced changes”. For the same compound, the “Mean salivation (blot diameter)” value [4, 15] was 8.75 ± 1.11 mm, the “Mean salivation (blot diameter)” value [4, 16] was 8.25 ± 0.63 mm and the “Mean salivation (blot diameter)” value [4, 17] was 2.13 ± 0.63 mm. The “Influence on scopolamine-induced change in salivation” value [4, 18] was “no influence on the scopolamine-induced changes”, the “Block of voltage-sensitive sodium channels” value [5] was “use-dependent block of voltage-sensitive sodium channels” and the “Inhibition of release of excitatory amino acids, principally glutamate” value [6] was “inhibit the release of excitatory amino acids, principally glutamate”.
